# Target: T1, sodium-proton exchanger of subtype 3 (NHE3) (Homo sapiens, UniProt P48764)
# T1 construct: expressed in transfected cells
# T1 sequence (P48764 26-834): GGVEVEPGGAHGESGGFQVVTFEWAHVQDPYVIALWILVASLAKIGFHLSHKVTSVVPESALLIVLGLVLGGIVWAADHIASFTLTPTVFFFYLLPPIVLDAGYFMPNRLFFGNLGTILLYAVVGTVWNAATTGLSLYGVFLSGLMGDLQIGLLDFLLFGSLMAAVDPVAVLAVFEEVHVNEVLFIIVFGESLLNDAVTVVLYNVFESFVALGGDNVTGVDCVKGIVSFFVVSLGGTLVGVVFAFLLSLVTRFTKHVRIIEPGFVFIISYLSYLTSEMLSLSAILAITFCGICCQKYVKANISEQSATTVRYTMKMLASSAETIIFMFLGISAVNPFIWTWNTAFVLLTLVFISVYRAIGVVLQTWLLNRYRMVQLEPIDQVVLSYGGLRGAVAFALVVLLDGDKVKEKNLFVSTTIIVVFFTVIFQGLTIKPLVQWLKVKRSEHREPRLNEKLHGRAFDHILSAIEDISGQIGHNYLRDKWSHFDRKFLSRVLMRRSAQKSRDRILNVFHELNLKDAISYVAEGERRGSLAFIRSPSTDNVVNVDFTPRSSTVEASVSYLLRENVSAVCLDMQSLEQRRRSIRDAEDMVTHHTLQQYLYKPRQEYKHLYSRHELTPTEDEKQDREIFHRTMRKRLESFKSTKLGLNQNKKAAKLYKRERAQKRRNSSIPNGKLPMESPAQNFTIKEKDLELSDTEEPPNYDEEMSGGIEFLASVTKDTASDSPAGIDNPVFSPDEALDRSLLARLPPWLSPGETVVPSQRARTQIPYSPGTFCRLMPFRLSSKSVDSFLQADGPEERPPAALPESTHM
# Test: Recovery of intracellular pH (pHi) after acidification in LAP1 cells stably expressing NHE3 (BCECF fluorescence, FLIPR)
# Type: cell-based
# Conditions: LAP1 cells stably expressing NHE3; pH recovery after acidification; range 1 is % inhibition at 10 μM; read-out: Activity range (inhibitory effect on NHE3)
Compound,IC50 [nM],inhibition at 10 µM [%]
"CN1CCC2CN([C@H]3Cc4c(Cl)cc(Cl)cc4[C@@H]3Oc3ccc(S(C)(=O)=O)cc3)CC21 (single isomer, unassigned) [Example 581]",< 1000,–
"CN1CCN(c2ccc(O[C@H]3c4cc(Cl)cc(Cl)c4C[C@@H]3N3CC[C@@H](O)C3)cc2)C1=O [Example 332, 1-{4-[trans-(1S,2S)-4,6-dichloro-2-((R)-3-hydroxypyrrolidin-1-yl)indan-1-yloxy]phenyl}-3-methylimidazolidin-2-one]",1000 to 10000,–
"NS(=O)(=O)c1ccc(O[C@@H]2c3ccccc3C[C@H]2NC2CCC2)c(F)c1 (racemic) [Example 709, 4-(rac-trans-(1,2)-2-Cyclobutylamino-indan-1-yloxy)-3-fluoro-benzenesulfonamide]",< 1000,–
"CN(C)CCCN(C)[C@H]1Cc2c(Cl)cc(Cl)cc2[C@@H]1Oc1ccc(S(C)(=O)=O)cc1 [Example 672, N-[trans-(1S,2S)-4,6-dichloro-1-(4-methanesulfonylphenoxy)indan-2-yl]-N,N′,N′-trimethylpropane-1,3-diamine]",< 1000,–
"Cc1c(O[C@H]2c3cc(Cl)cc(F)c3C[C@@H]2N2CC[C@@H](O)C2)ccc(-n2c(C)nnc2C)c1C [Example 141, (R)-1-{trans-(1S,2S)-6-chloro-1-[4-(3,5-dimethyl-[1,2,4]triazol-4-yl)-2,3-dimethylphenoxy]-4-fluoroindan-2-yl}pyrrolidin-3-ol]",< 1000,–
"Cn1ccn(-c2ccc(F)c(O[C@H]3c4cc(Cl)cc(Cl)c4C[C@@H]3N3CC[C@@H](O)C3)c2)c1=O [Example 313, 1-{3-[(1S,2S)-4,6-dichloro-2-((R)-3-hydroxypyrrolidin-1-yl)indan-1-yloxy]-4-fluorophenyl}-3-methyl-1,3-dihydroimidazol-2-one]",< 1000,–
"Cc1nnc(C)n1-c1ccc(O[C@H]2c3cc(Cl)ccc3C[C@@H]2N2CC[C@@H](O)C2)c(F)c1 [Example 143, (R)-1-{trans-(1S,2S)-6-chloro-1-[4-(3,5-dimethyl-[1,2,4]triazol-4-yl)-2-fluorophenoxy]indan-2-yl}pyrrolidin-3-ol]",< 1000,–
"Cc1nnc(C)n1-c1ccc(O[C@H]2c3cc(Cl)cc(Cl)c3C[C@@H]2N2CC[C@@H](O)C2)cc1 [Example 133, (R)-1-{trans-(1S,2S)-4,6-dichloro-1-[4-(3,5-dimethyl-[1,2,4]triazol-4-yl)phenoxy]indan-2-yl}pyrrolidin-3-ol]",< 1000,–
"CS(=O)(=O)c1ccc(O[C@H]2c3cc(Cl)cc(Cl)c3C[C@@H]2N2CCN3CCC[C@H]3C2)cc1 [Example 208, (S)-2-[(S)-4-(S)-chloro-6-chloro-1-(4-methanesulfonylphenoxy)indan-2-yl]octahydropyrrolo[1,2-a]pyrazine]",–,20 to 50
"Cc1cc(C)c2cccnc2c1O[C@H]1c2ccccc2CC[C@@H]1N1CCOCC1 (racemic) [Example 573, 5,7-dimethyl-8-(rac-trans-(1,2)-2-morpholin-4-yl-1,2,3,4-tetrahydronaphthalen-1-yloxy)quinoline]",–,20 to 50
"CS(=O)(=O)c1ccc(O[C@H]2c3cc(Cl)cc(Cl)c3C[C@@H]2N2CCNC(C(F)(F)F)C2)cc1 (mixture of isomers) [Example 301, 1-[trans-(1S,2S)-4,6-dichloro-1-(4-methanesulfonylphenoxy)indan-2-yl]-3-trifluoromethylpiperazine]",–,20 to 50
"CS(=O)(=O)c1cc(Cl)c(O[C@H]2c3ccccc3C[C@@H]2N2CCCC2)c(Cl)c1 (racemic) [Example 264, 1-[rac-trans-(1,2)-1-(2,6-dichloro-4-methanesulfonylphenoxy)indan-2-yl]pyrrolidine]",1000 to 10000,–
"CS(=O)(=O)c1ccc(O[C@@H]2c3ccccc3C[C@@H]2NC2CCC2)cc1 (racemic) [Example 706, Cyclobutyl-[rac-cis-(1,2)-1-(4-methanesulfonyl-phenoxy)-indan-2-yl]-amine]",–,20 to 50
"C[C@@]1(N2CCCC2)Cc2ccccc2[C@H]1Oc1ccc(S(C)(=O)=O)cc1 (racemic) [Example 252, 1-[1-(4-methanesulfonylphenoxy)-2-methylindan-2-yl]pyrrolidine]",–,20 to 50

# Continued, values first:
IC50 [nM],inhibition at 10 µM [%],Compound
–,20 to 50,"N#Cc1cc(Cl)ccc1O[C@H]1c2ccccc2CC[C@@H]1N1CCC[C@@H](N)C1 (racemic) [Example 366, 2-[rac-trans-(1,2)-2-((R)-3-aminopiperidin-1-yl)-1,2,3,4-tetrahydronaphthalen-1-yloxy]-5-chlorobenzonitrile]"
1000 to 10000,–,"CCOc1cccc(O[C@@H]2c3ccccc3C[C@H]2N2CCC(CN)C2)c1 (mixture of isomers) [Example 615, C-{1-[rac-trans-(1,2)-1-(3-ethoxyphenoxy)indan-2-yl]pyrrolidin-3-yl}methylamine]"
1000 to 10000,–,"N[C@H]1CCCN([C@@H]2Cc3ccccc3[C@H]2Oc2cccc3ncccc23)C1 (racemic) [Example 194, (S)-1-[rac-trans-(1,2)-1-(quinolin-5-yloxy)indan-2-yl]piperidin-3-ylamine]"
1000 to 10000,–,"CO[C@@H]1CCN(C2Cc3ccccc3C2Oc2cccc(NC(C)=O)c2)C1 (mixture of isomers) [Example 682, N-{3-[rac-trans-(1,2)-2-((R)-3-methoxypyrrolidin-1-yl)indan-1-yloxy]phenyl}acetamide]"
–,20 to 50,"N[C@@H]1CCCN([C@H]2CCc3ccccc3[C@@H]2Oc2ccc(Cl)nc2)C1 (racemic) [Example 81, (R)-1-[rac-trans-(1,2)-1-(6-chloropyridin-3-yloxy)-1,2,3,4-tetrahydronaphthalen-2-yl]piperidin-3-ylamine]"
< 1000,–,"N#Cc1ccc(O[C@H]2c3ccccc3CC[C@@H]2N2CCC[C@H](N)C2)c(F)c1 (racemic) [Example 533, 4-[rac-trans-(1,2)-2-((S)-3-aminopiperidin-1-yl)-1,2,3,4-tetrahydronaphthalen-1-yloxy]-3-fluorobenzonitrile]"
1000 to 10000,–,"COc1cc(Cl)cc(O[C@@H]2c3ccccc3C[C@H]2N2CCC(CN)CC2)c1 (racemic) [Example 612, C-{1-[rac-trans-(1,2)-1-(3-chloro-5-methoxyphenoxy)indan-2-yl]piperidin-4-yl}methylamine]"
< 1000,–,"CN(C)S(=O)(=O)c1ccc(OC2c3ccccc3CC2N2CCC[C@@H](N)C2)c(Cl)c1Cl (mixture of isomers) [Example 520, 4-[rac-trans-(1,2)-2-((R)-3-aminopiperidin-1-yl)indan-1-yloxy]-2,3-dichloro-N,N-dimethylbenzenesulfonamide]"
< 1000,–,"NC(=O)c1cccc(O[C@@H]2c3ccccc3C[C@H]2N2CCC[C@@H](N)C2)c1 (racemic) [Example 411, 3-[rac-trans-(1,2)-2-((R)-3-aminopiperidin-1-yl)indan-1-yloxy]benzamide]"
–,20 to 50,"CC(=O)Nc1cccc(O[C@H]2c3cccc(Cl)c3C[C@@H]2N2CCCC2)c1 (racemic) [Example 649, N-[3-(rac-trans-(1,2)-4-chloro-2-pyrrolidin-1-ylindan-1-yloxy)phenyl]acetamide]"
–,20 to 50,"O=C(O)c1ccc(O[C@H]2c3ccccc3C[C@@H]2CN2CCCC2)cc1Cl (racemic) [Example 390, 2-chloro-4-(2-pyrrolidin-1-ylmethylindan-1-yloxy)benzoic acid]"
–,20 to 50,"Cc1ccc(F)c(O[C@H]2c3ccccc3CC[C@@H]2N2CCC[C@@H](N)C2)c1 (racemic) [Example 43, (R)-1-[rac-trans-(1,2)-1-(2-fluoro-5-methylphenoxy)-1,2,3,4-tetrahydronaphthalen-2-yl]piperidin-3-ylamine]"
1000 to 10000,–,"NC(=O)c1cccc(O[C@@H]2c3ccccc3C[C@H]2N2CCC(N)C2)c1 (mixture of isomers) [Example 415, 3-[rac-trans-(1,2)-2-(3-aminopyrrolidin-1-yl)indan-1-yloxy]benzamide]"
1000 to 10000,–,"Cc1ccc(O[C@@H]2c3ccccc3C[C@H]2N2C[C@H]3CNC[C@H]3C2)c(Br)c1 (racemic) [Example 10, 2-[rac-trans-(1,2)-1-(2-bromo-4-methylphenoxy)indan-2-yl]octahydropyrrolo[3,4-c]pyrrole]"
–,20 to 50,"CCC(=O)c1cc(F)c(O[C@H]2c3ccccc3CC[C@@H]2N2CCC[C@H](N)C2)c(F)c1 (racemic) [Example 327, 1-{4-[rac-trans-(1,2)-2-((S)-3-aminopiperidin-1-yl)-1,2,3,4-tetrahydronaphthalen-1-yloxy]-3,5-difluorophenyl}propan-1-one]"
–,20 to 50,"N[C@@H]1CCCN([C@H]2CCc3ccccc3[C@@H]2Oc2cccc(OC(F)F)c2)C1 (racemic) [Example 56, (R)-1-[rac-trans-(1,2)-1-(3-difluoromethoxyphenoxy)-1,2,3,4-tetrahydronaphthalen-2-yl]piperidin-3-ylamine]"
1000 to 10000,–,"N#Cc1csc(-c2ccc(O[C@@H]3c4ccccc4C[C@H]3N3CCC[C@@H](N)C3)cc2)n1 (racemic) [Example 381, 2-{4-[rac-trans-(1,2)-2-((R)-3-aminopiperidin-1-yl)indan-1-yloxy]phenyl}thiazole-4-carbonitrile]"
